US20240102898A1, “IMPROVED METHOD FOR OPTICALLY CLEARING A TISSUE SAMPLE FOR A LIGHT MICROSCOPY EXAMINATION” (MobiCron GmbH, priority 2020, published 2024)

Key:
[1] = comparison of embedding media; cited from earlier work
[2] = Vapor pressures of embedding media (FIG. 1, from the literature)
Excerpt: The vapor pressures of various embedding media are known from the literature.

For O=C(Cc1ccccc1)OCc1ccccc1 [benzyl phenylacetate, benzyl 2-phenylacetate], the “vapor pressure (in words)” value [1] is listed as “lowest vapor pressure”, the “vapor pressure, times lower than that of ethyl cinnamate” value ([2]; at 25° C.) is listed as “approximately 275 times” and the “volatility, times less volatile than DBE” value ([2]; expanded section in FIG. 1) is listed as “about 4 times”.

In the case of CCOC(=O)C=Cc1ccccc1 [ethyl cinnamate, reference compound], the “vapor pressure (in words)” value [1] is listed as “comparatively high vapor pressure”.
